molecular target: recombinant Human Phosphodiesterase B2 (PDE4B2) (Homo sapiens, UniProt Q07343); assay: Human Phosphodiesterase B2 Alpha Screen Assay; format: biochemical; conditions: Alpha Screen cAMP assay
Procedure: Human Phosphodiesterase B2 Alpha Screen Assay
The assay uses recombinant Human Phosphodiesterase B2 (PDE4B2) produced in house (PrAZL0133), stored at −20° C. The substrate uses cAMP, part of the Alpha Screen cAMP kit (Perkin Elmer, Cat# 6760625M), stored at 4° C. The Alpha Screen kit also includes biotinylated cAMP, acceptor and donor beads.
The assay additions were as follows: Test compounds and controls were added to white 384-well flat-bottom plates (Greiner, Cat# 781075), 0.2 μl in 100% DMSO, followed by 10 μl PDE4B2 in reaction buffer. The reaction buffer constitution was: 50 mM Tris (pH 7.5), 8.3 mM MgCl2, 1.7 mM EGTA and 0.01% (w/v) Brij®35. The enzyme and the compounds were incubated at room temperature for 15 minutes. Then 10 μl cAMP in reaction buffer was added. The assay was stopped after 60 minutes incubation at room temperature by adding 10 μl acceptor beads in detection buffer with 40 mM EDTA. The detection buffer constitution was: 5 mM Tris (pH 7.5), 0.1% (w/v) BSA and 0.1% (v/v) Tween 20. This addition followed by an addition of 10 μl donor beads in detection buffer, with biotinylated cAMP. The plates were then incubated, dark at room temperature, for 5 hours followed by measurement on a Fusion™-α analyser. IC50 values (presented in Table 4) were determined using Xlfit curve fitting using model 205.

recombinant Human Phosphodiesterase B2 (PDE4B2), sequence (Q07343 1-564 isoform Q07343-2): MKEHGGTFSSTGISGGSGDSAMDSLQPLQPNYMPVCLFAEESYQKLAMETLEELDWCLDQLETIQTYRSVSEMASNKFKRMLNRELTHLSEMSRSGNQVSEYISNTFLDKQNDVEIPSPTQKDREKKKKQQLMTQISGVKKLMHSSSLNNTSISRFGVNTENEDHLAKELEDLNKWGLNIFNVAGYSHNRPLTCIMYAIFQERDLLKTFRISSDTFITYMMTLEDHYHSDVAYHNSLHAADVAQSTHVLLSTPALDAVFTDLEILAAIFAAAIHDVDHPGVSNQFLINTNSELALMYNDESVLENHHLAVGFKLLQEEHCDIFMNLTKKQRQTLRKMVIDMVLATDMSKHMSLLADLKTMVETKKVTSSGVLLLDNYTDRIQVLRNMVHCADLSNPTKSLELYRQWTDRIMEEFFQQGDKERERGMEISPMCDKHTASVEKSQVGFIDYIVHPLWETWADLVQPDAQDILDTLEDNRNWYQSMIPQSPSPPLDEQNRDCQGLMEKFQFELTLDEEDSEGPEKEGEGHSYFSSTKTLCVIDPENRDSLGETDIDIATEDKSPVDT

| Structure (SMILES) | IC50 [nM] |
| --- | --- |
| O=C(N[C@H]1CC[C@@H](n2c(=O)c3cc(F)cnc3n(C3CCSC3)c2=O)CC1)c1cn2ccccc2n1 (relative stereo) [Example 28, N-{cis-4-[6-fluoro-2,4-dioxo-1-(tetrahydro-3-thienyl)-1,4-dihydropyrido[2,3-d]pyrimidin-3(2H)-yl]cyclohexyl}imidazo[1,2-a]pyridine-2-carboxamide] | 0.97 |
| O=C(N[C@H]1CC[C@@H](n2c(=O)c3cc(F)cnc3n(C3CCSC3)c2=O)CC1)c1cc(CO)ccc1O (relative stereo) [Example 29, N-{cis-4-[6-fluoro-2,4-dioxo-1-(tetrahydro-3-thienyl)-1,4-dihydropyrido[2,3-d]pyrimidin-3(2H)-yl]cyclohexyl}-2-hydroxy-5-(hydroxymethyl)benzamide] | 5.51 |
| O=C(N[C@H]1CC[C@@H](n2c(=O)c3cc(F)cnc3n(C3CCSC3)c2=O)CC1)c1ccccc1O (relative stereo) [Example 30, N-{cis-4-[6-fluoro-2,4-dioxo-1-(tetrahydro-3-thienyl)-1,4-dihydropyrido[2,3-d]pyrimidin-3(2H)-yl]cyclohexyl}-2-hydroxybenzamide] | 6.45 |
| Cc1ccc(C(=O)N[C@H]2CC[C@@H](n3c(=O)c4cc(F)cnc4n(C4CCSC4)c3=O)CC2)c(O)c1 (relative stereo) [Example 31, N-{cis-4-[6-fluoro-2,4-dioxo-1-(tetrahydro-3-thienyl)-1,4-dihydropyrido[2,3-d]pyrimidin-3(2H)-yl]cyclohexyl}-2-hydroxy-4-methylbenzamide] | 2.75 |
| O=C(N[C@H]1CC[C@@H](n2c(=O)c3cc(F)cnc3n(C3CCSCC3)c2=O)CC1)c1cn2ccccc2n1 [Example 2, N-{cis-4-[6-Fluoro-2,4-dioxo-1-(tetrahydro-2H-thiopyran-4-yl)-1,4-dihydropyrido[2,3-d]pyrimidin-3(2H)-yl]cyclohexyl}imidazo[1,2-a]pyridine-2-carboxamide] | 1.1 |
| O=C(N[C@H]1CC[C@@H](n2c(=O)c3cc(F)cnc3n(C3CCSCC3)c2=O)CC1)c1cccc2cccnc12 [Example 3, N-{cis-4-[6-fluoro-2,4-dioxo-1-(tetrahydro-2H-thiopyran-4-yl)-1,4-dihydropyrido[2,3-d]pyrimidin-3(2H)-yl]cyclohexyl}quinoline-8-carboxamide] | 1.31 |
| O=C(N[C@H]1CC[C@@H](n2c(=O)c3cc(F)cnc3n(C3CCSCC3)c2=O)CC1)c1cc2ccccn2n1 [Example 4, N-{cis-4-[6-fluoro-2,4-dioxo-1-(tetrahydro-2H-thiopyran-4-yl)-1,4-dihydropyrido[2,3-d]pyrimidin-3(2H)-yl]cyclohexyl}pyrazolo[1,5-a]pyridine-2-carboxamide] | 0.674 |
| O=C(N[C@H]1CC[C@@H](n2c(=O)c3cc(F)cnc3n(C3CCSCC3)c2=O)CC1)c1n[nH]c2ccccc12 [Example 5, N-{cis-4-[6-fluoro-2,4-dioxo-1-(tetrahydro-2H-thiopyran-4-yl)-1,4-dihydropyrido[2,3-d]pyrimidin-3(2H)-yl]cyclohexyl}-1H-indazole-3-carboxamide] | 1.35 |
| O=C(CNC(=O)c1ccccc1O)N[C@H]1CC[C@@H](n2c(=O)c3cc(F)cnc3n(C3CCSCC3)c2=O)CC1 [Example 6, N-[2-({cis-4-[6-fluoro-2,4-dioxo-1-(tetrahydro-2H-thiopyran-4-yl)-1,4-dihydropyrido[2,3-d]pyrimidin-3(2H)-yl]cyclohexyl}amino)-2-oxoethyl]-2-hydroxybenzamide] | 1.02 |
| COc1ccc(C(=O)N[C@H]2CC[C@@H](n3c(=O)c4cc(F)cnc4n(C4CCSCC4)c3=O)CC2)cc1O [Example 7, N-{cis-4-[6-fluoro-2,4-dioxo-1-(tetrahydro-2H-thiopyran-4-yl)-1,4-dihydropyrido[2,3-d]pyrimidin-3(2H)-yl]cyclohexyl}-3-hydroxy-4-methoxybenzamide] | 0.874 |
| Cc1ccc(C(=O)N[C@H]2CC[C@@H](n3c(=O)c4cc(F)cnc4n(C4CCSCC4)c3=O)CC2)c(O)c1 [Example 9, N-{cis-4-[6-fluoro-2,4-dioxo-1-(tetrahydro-2H-thiopyran-4-yl)-1,4-dihydropyrido[2,3-d]pyrimidin-3(2H)-yl]cyclohexyl}-2-hydroxy-4-methylbenzamide] | 3.75 |
| COc1cc(C(=O)N[C@H]2CC[C@@H](n3c(=O)c4cc(F)cnc4n(C4CCSCC4)c3=O)CC2)ccc1O [Example 11, N-{cis-4-[6-fluoro-2,4-dioxo-1-(tetrahydro-2H-thiopyran-4-yl)-1,4-dihydropyrido[2,3-d]pyrimidin-3(2H)-yl]cyclohexyl}-4-hydroxy-3-methoxybenzamide] | 1.61 |
| O=C(CCc1cccc(O)c1)N[C@H]1CC[C@@H](n2c(=O)c3cc(F)cnc3n(C3CCSCC3)c2=O)CC1 [Example 19, N-{cis-4-[6-fluoro-2,4-dioxo-1-(tetrahydro-2H-thiopyran-4-yl)-1,4-dihydropyrido[2,3-d]pyrimidin-3(2H)-yl]cyclohexyl}-3-(3-hydroxyphenyl)propanamide] | 2.53 |

Next, values leading:

| IC50 [nM] | Structure (SMILES) |
| --- | --- |
| 0.877 | O=C(N[C@H]1CC[C@@H](n2c(=O)c3cc(F)cnc3n(C3CCSCC3)c2=O)CC1)C(O)c1ccccc1 (relative stereo) [Example 22, N-{cis-4-[6-fluoro-2,4-dioxo-1-(tetrahydro-2H-thiopyran-4-yl)-1,4-dihydropyrido[2,3-d]pyrimidin-3(2H)-yl]cyclohexyl}-2-hydroxy-2-phenylacetamide] |
| 10.7 | O=C(N[C@H]1CC[C@@H](n2c(=O)c3cc(F)cnc3n(C3CCSC3)c2=O)CC1)C1CC1 (relative stereo) [Example 27, N-{cis-4-[6-fluoro-2,4-dioxo-1-(tetrahydro-3-thienyl)-1,4-dihydropyrido[2,3-d]pyrimidin-3(2H)-yl]cyclohexyl}cyclopropanecarboxamide] |
| 4.59 | O=C(N[C@H]1CC[C@@H](n2c(=O)c3cc(F)cnc3n(C3CCSCC3)c2=O)CC1)C1CC1 [Example 1, N-{cis-4-[6-Fluoro-2,4-dioxo-1-(tetrahydro-2H-thiopyran-4-yl)-1,4-dihydropyrido[2,3-d]pyrimidin-3(2H)-yl]cyclohexyl}cyclopropanecarboxamide] |
| 1.62 | O=C(Cc1cccc(O)c1)N[C@H]1CC[C@@H](n2c(=O)c3cc(F)cnc3n(C3CCSCC3)c2=O)CC1 [Example 8, N-{cis-4-[6-fluoro-2,4-dioxo-1-(tetrahydro-2H-thiopyran-4-yl)-1,4-dihydropyrido[2,3-d]pyrimidin-3(2H)-yl]cyclohexyl}-2-(3-hydroxyphenyl)acetamide] |
| 1.12 | Cc1ccc(C(=O)N[C@H]2CC[C@@H](n3c(=O)c4cc(F)cnc4n(C4CCSCC4)c3=O)CC2)cc1O [Example 10, N-{cis-4-[6-fluoro-2,4-dioxo-1-(tetrahydro-2H-thiopyran-4-yl)-1,4-dihydropyrido[2,3-d]pyrimidin-3(2H)-yl]cyclohexyl}-3-hydroxy-4-methylbenzamide] |
| 0.887 | O=C(N[C@H]1CC[C@@H](n2c(=O)c3cc(F)cnc3n(C3CCSCC3)c2=O)CC1)[C@H](O)C1CCCCC1 [Example 12, (2R)-2-cyclohexyl-N-{cis-4-[6-fluoro-2,4-dioxo-1-(tetrahydro-2H-thiopyran-4-yl)-1,4-dihydropyrido[2,3-d]pyrimidin-3(2H)-yl]cyclohexyl}-2-hydroxyacetamide] |
| 1.8 | O=C(N[C@H]1CC[C@@H](n2c(=O)c3cc(F)cnc3n(C3CCSCC3)c2=O)CC1)c1cccc(O)c1 [Example 14, N-{cis-4-[6-fluoro-2,4-dioxo-1-(tetrahydro-2H-thiopyran-4-yl)-1,4-dihydropyrido[2,3-d]pyrimidin-3(2H)-yl]cyclohexyl}-3-hydroxybenzamide] |
| 1.75 | O=C(Cc1ccc(O)cc1)N[C@H]1CC[C@@H](n2c(=O)c3cc(F)cnc3n(C3CCSCC3)c2=O)CC1 [Example 15, N-{cis-4-[6-fluoro-2,4-dioxo-1-(tetrahydro-2H-thiopyran-4-yl)-1,4-dihydropyrido[2,3-d]pyrimidin-3(2H)-yl]cyclohexyl}-2-(4-hydroxyphenyl)acetamide] |
| 1.69 | O=C(N[C@H]1CC[C@@H](n2c(=O)c3cc(F)cnc3n(C3CCSCC3)c2=O)CC1)c1ccc(O)cc1 [Example 16, N-{cis-4-[6-fluoro-2,4-dioxo-1-(tetrahydro-2H-thiopyran-4-yl)-1,4-dihydropyrido[2,3-d]pyrimidin-3(2H)-yl]cyclohexyl}-4-hydroxybenzamide] |
| 4.65 | O=C(N[C@H]1CC[C@@H](n2c(=O)c3cc(F)cnc3n(C3CCSCC3)c2=O)CC1)c1ccccc1O [Example 17, N-{cis-4-[6-fluoro-2,4-dioxo-1-(tetrahydro-2H-thiopyran-4-yl)-1,4-dihydropyrido[2,3-d]pyrimidin-3(2H)-yl]cyclohexyl}-2-hydroxybenzamide] |
| 2.15 | O=C(N[C@H]1CC[C@@H](n2c(=O)c3cc(F)cnc3n(C3CCSCC3)c2=O)CC1)C1CCCCC1 [Example 18, N-{cis-4-[6-fluoro-2,4-dioxo-1-(tetrahydro-2H-thiopyran-4-yl)-1,4-dihydropyrido[2,3-d]pyrimidin-3(2H)-yl]cyclohexyl}cyclohexanecarboxamide] |

— patent US20090233907A1, “Pyridopyrimidine Derivatives and Their Use as PDE4 Inhibitors” (ASTRAZENECA AB, priority 2006, published 2009)
